Values joined by “and” are separate entries in the source; they are usually repeats but may differ in a detail not shown here. Equal values may be shown once. ± gives the uncertainty stated by the source.
Molecule `C1=CCCCC1` has a viscosity (303.15 K, 101 kPa) of 0.573 ± 0.007 mPa·s.
For `C=C(C)C(=O)OCC`, the viscosity (298.15 K, 101 kPa) was 0.6412 ± 0.014 mPa·s, the viscosity (303.15 K, 101 kPa) was 0.5825 ± 0.013 mPa·s and the viscosity (308.15 K, 101 kPa) was 0.5323 ± 0.011 mPa·s. The viscosity (313.15 K, 101 kPa) was 0.4915 ± 0.01 mPa·s and the viscosity (318.15 K, 101 kPa) was 0.4586 ± 0.0098 mPa·s.
With `CC(=O)[O-].CCCC[NH2+]CCO` the viscosity (293.15 K, 101 kPa) was 1412 ± 70 mPa·s, the viscosity (298.15 K, 101 kPa) was 921.1 ± 41 mPa·s and the viscosity (303.15 K, 101 kPa) was 616.9 ± 24 mPa·s. For the same molecule, the viscosity (308.15 K, 101 kPa) was 423.3 ± 15 mPa·s, the viscosity (313.15 K, 101 kPa) was 297 ± 9.3 mPa·s and the viscosity (318.15 K, 101 kPa) was 212.7 ± 6 mPa·s. For the same molecule, the viscosity (323.15 K, 101 kPa) was 155.3 ± 4 mPa·s.
In the case of `CC(C)CC1CCCCC1`, the viscosity (293.15 K, 102 kPa) is reported as 1.17 ± 0.02 mPa·s, the viscosity (303.15 K, 102 kPa) is reported as 1 ± 0.02 mPa·s and the viscosity (313.15 K, 102 kPa) is reported as 0.871 ± 0.021 mPa·s. It also gave a viscosity (323.15 K, 102 kPa) of 0.765 ± 0.021 mPa·s.
Work on `CC(C)O` yielded a viscosity (293.15 K, 101.32 kPa) of 2.29 ± 0.018 mPa·s, a viscosity (298.15 K, 101.3 kPa) of 2.012 ± 0.049 mPa·s and a viscosity (298.15 K, 101.33 kPa) of 1.936 ± 0.013 mPa·s. For the same molecule, the viscosity (303 K, 101 kPa) was 1.49 ± 0.14 mPa·s, the viscosity (303.15 K, 100 kPa) was 1.73 ± 0.17 mPa·s and the viscosity (303.15 K, 101.33 kPa) was 1.878 ± 0.019 mPa·s and 1.731 ± 0.011 mPa·s and 1.4 ± 0.024 mPa·s. For the same molecule, the viscosity (308.15 K, 100 kPa) was 1.579 ± 0.048 mPa·s and 1.49 ± 0.15 mPa·s, the viscosity (308.15 K, 101.3 kPa) was 1.485 ± 0.037 mPa·s and the viscosity (308.15 K, 101.33 kPa) was 1.494 ± 0.01 mPa·s. The viscosity (313 K, 101 kPa) was 1.13 ± 0.11 mPa·s, the viscosity (313.15 K, 101 kPa) was 1.319 ± 0.033 mPa·s and 1.281 ± 0.06 mPa·s and 1.4 ± 0.03 mPa·s and the viscosity (313.15 K, 101.3 kPa) was 1.322 ± 0.011 mPa·s. The viscosity (313.15 K, 101.33 kPa) was 1.427 ± 0.014 mPa·s and 1 ± 0.018 mPa·s, the viscosity (318.15 K, 100 kPa) was 1.171 ± 0.12 mPa·s and the viscosity (318.15 K, 101 kPa) was 1.228 ± 0.026 mPa·s. For the same molecule, the viscosity (323.15 K, 100 kPa) was 0.995 ± 0.041 mPa·s, the viscosity (323.15 K, 101 kPa) was 1.063 ± 0.027 mPa·s and 1.083 ± 0.023 mPa·s and the viscosity (323.15 K, 101.33 kPa) was 1.105 ± 0.011 mPa·s and 1.056 ± 0.064 mPa·s.
In the case of `CC1CCCCC1`, the viscosity (293.15 K, 100 kPa) is reported as 0.736 ± 0.017 mPa·s (2×) and 0.73 ± 0.09 mPa·s, the viscosity (293.15 K, 101.2 kPa) is reported as 0.7298 ± 0.033 mPa·s and the viscosity (298.15 K, 100 kPa) is reported as 0.69 ± 0.08 mPa·s. The viscosity (298.15 K, 101 kPa) was 0.68 ± 0.006 mPa·s, the viscosity (298.15 K, 101.2 kPa) was 0.6819 ± 0.031 mPa·s and the viscosity (303.15 K, 100 kPa) was 0.65 ± 0.08 mPa·s and 0.639 ± 0.014 mPa·s. It also gave a viscosity (303.15 K, 101 kPa) of 0.6416 ± 0.0044 mPa·s, a viscosity (303.15 K, 101.2 kPa) of 0.6389 ± 0.029 mPa·s and a viscosity (303.15 K, 101.3 kPa) of 0.6407 ± 0.0044 mPa·s. It also gave a viscosity (303.15 K, 101.33 kPa) of 0.639 ± 0.0085 mPa·s, a viscosity (308.15 K, 100 kPa) of 0.61 ± 0.07 mPa·s and a viscosity (313.15 K, 100 kPa) of 0.568 ± 0.013 mPa·s. For the same molecule, the viscosity (313.15 K, 101.2 kPa) was 0.5641 ± 0.025 mPa·s, the viscosity (318.15 K, 100 kPa) was 0.54 ± 0.07 mPa·s and the viscosity (318.15 K, 101.2 kPa) was 0.5314 ± 0.024 mPa·s. For the same molecule, the viscosity (323.15 K, 100 kPa) was 0.51 ± 0.06 mPa·s and 0.501 ± 0.011 mPa·s.
For `CCC(C)CO` (stereo unspecified), the viscosity (298.15 K, 101 kPa) was 4.868 ± 0.045 mPa·s, the viscosity (303.15 K, 101.33 kPa) was 3.594 ± 0.048 mPa·s and the viscosity (313.15 K, 101.33 kPa) was 2.601 ± 0.035 mPa·s. The viscosity (323.15 K, 101.33 kPa) was 1.936 ± 0.026 mPa·s.
Work on `CCCCC1CCCCC1` yielded a viscosity (323.15 K, 100 kPa) of 0.835 ± 0.01 mPa·s.
`CCCCCCCCCBr` gave a viscosity (297.75 K, 101 kPa) of 1.922 ± 0.042 mPa·s, a viscosity (303.55 K, 101 kPa) of 1.721 ± 0.037 mPa·s and a viscosity (313.65 K, 101 kPa) of 1.458 ± 0.032 mPa·s.
`CCCCCCCCn1cc[n+](C)c1.O=S(=O)([N-]S(=O)(=O)C(F)(F)F)C(F)(F)F` gave a viscosity (308.15 K, 100 kPa) of 56.43 ± 2.3 mPa·s.
Molecule `CCCCCN` has a viscosity (293.15 K, 101.33 kPa) of 0.656 ± 0.004 mPa·s, a viscosity (298.15 K, 101.33 kPa) of 0.609 ± 0.004 mPa·s and a viscosity (303.15 K, 101 kPa) of 0.5809 ± 0.005 mPa·s. The viscosity (303.15 K, 101.33 kPa) was 0.563 ± 0.003 mPa·s, the viscosity (308.15 K, 101.33 kPa) was 0.523 ± 0.003 mPa·s and the viscosity (313.15 K, 101.33 kPa) was 0.484 ± 0.003 mPa·s. For the same molecule, the viscosity (318.15 K, 101.33 kPa) was 0.457 ± 0.002 mPa·s.
In the case of `CCCCC[P+](CC)(CC)CC.O=S(=O)([N-]S(=O)(=O)C(F)(F)F)C(F)(F)F`, the viscosity (298.15 K, 101.3 kPa) is reported as 87.5 ± 18 mPa·s, the viscosity (303.15 K, 101.3 kPa) is reported as 68.8 ± 14 mPa·s and the viscosity (308.15 K, 101.3 kPa) is reported as 54.9 ± 11 mPa·s. It also gave a viscosity (318.15 K, 101.3 kPa) of 36.6 ± 7.3 mPa·s and a viscosity (323.15 K, 101.3 kPa) of 30.5 ± 6.1 mPa·s.
`CCCCCl` gave a viscosity (298.15 K, 101 kPa) of 0.428 mPa·s, a viscosity (318.15 K, 101 kPa) of 0.356 mPa·s and a viscosity (323.15 K, 101 kPa) of 0.34 mPa·s.
Work on `CCCC[N+]1(C)CCCC1.N#C[S-]` yielded a viscosity (298.15 K, 101 kPa) of 109.5 ± 23 mPa·s, a viscosity (308.15 K, 101 kPa) of 70.36 ± 6.5 mPa·s and a viscosity (318.15 K, 101 kPa) of 47.79 ± 3 mPa·s.
With `CCCC[n+]1ccn(C)c1.N#C[S-]` the viscosity (298.15 K, 100 kPa) was 57.4 ± 1.8 mPa·s and 62.81 ± 3.2 mPa·s, the viscosity (308.15 K, 100 kPa) was 37.36 ± 2 mPa·s and 40.56 ± 2.1 mPa·s and the viscosity (318.15 K, 100 kPa) was 25.8 ± 1.4 mPa·s.

From the CheMixHub viscosity set
